Blank lines part the entries; values can stand above or below the compound they belong to.
Experiments:
Human U87MG Glioblastoma [1] = test: In vivo evaluation of Compounds 3 and 45, alone and in combination with anti-HGF mAb HuL2G7, in human U87MG glioblastoma implanted nude mice (tumor growth delay method); settings: for induction of regressions: monotherapy p.o. qd x 14; for tumor growth delays / tumor growth delays (% of median TTE of control): monotherapy p.o. qd x 14 (Table 4: Cmpd 45 136.05 mg/kg, Cmpd 3 200 mg/kg)
Protocol: B. In Vivo Evaluation of Compounds 3 and 45, Alone and in Combination with Anti-HGF mAb HuL2G7, in Human U87MG Glioblastoma Implanted Nude Mice
(§1) Female athymic nude mice (Harlan), 9 weeks of age, were fed ad libitum water (reverse osmosis, 1 ppm Cl2) and an irradiated standard rodent diet (NIH31 Modified and Irradiated) consisting of: 18% protein, 5% fat, and 5% fiber. Mice were housed on irradiated Enrich-O'Cobs™ laboratory animal bedding in static microisolators on a 12-hour light cycle at 21-22° C. (70-72° F.) and 40-60% humidity.
(§2) The human U87MG glioblastoma utilized in the present study was maintained in serial s.c. transplantation in nude mice. Mice were implanted subcutaneously in the flank with a 1 mm^3 fragment of U87MG glioblastoma. Tumors were monitored as the neoplasms reached the desired size, approximately 190 mm^3. At 12 days, when the tumors attained a size between 172-256 mm^3 in calculated tumor volume, the animals were pair-matched into various treatment groups (the mean tumor volume in each group was 190-198 mm^3). Estimated tumor volume was calculated using the formula:
(§3) where w=width and l=length in mm of a U87MG glioblastoma.
Compounds 3 and 45 were prepared by as described above. Compounds 3 and 45 were then prepared for administration as suspensions in 30% Captisol/100 mM citrate at pH 3.0. HuL2G7 was then provided as a 20.7 mg/ml stock solution in normal saline. The stock solution was diluted with normal saline to provide the formulation for injection.
(§4) The concentration of each compound was such that the desired dose was delivered in a volume of 5 μl per gram body weight. Dosing solutions of Compounds 3 and 45 were prepared fresh weekly and stored under refrigeration. Dosing solutions of HuL2G7 were prepared fresh prior to each treatment and were stored under refrigeration along with the stock solution.
On Day 1, animals were pairmatched by tumor size into 8 groups of 10 mice each. […] HuL2G7 was given i.v. at 10 mg/kg qwk×2. Treatment with all agents, either alone or in combination, was initiated on Day 1. Mice treated with monotherapy received the vehicle used for the other agent. There was a vehicle control group which received the Captisol/citrate, pH 3.0 vehicle p.o. qd×14 as well as saline i.v. qwk×2. Treatment groups were compared for statistical significance to the vehicle control. Groups that received the combinations were compared for statistical significance to the monotherapy groups that received the two agents used in combination. The experiment was terminated on Day 43.
(§5) The tumor growth delay (TGD) method was used in this study; treatment-effected median increases in time to endpoint (TTE) of various treatment groups were compared to untreated and vehicle controls. In the TGD method, each animal was euthanized as a cancer death when its U87MG glioblastoma reached a size of 2000 mm^3. TTE values were determined for all groups based on the calculated day reaching endpoint as given by the formula: […]
(§6) where TTE is expressed in days, endpoint volume is in mm^3, b is the intercept, and m is the slope of the line obtained by linear regression of a log-transformed tumor growth data set. The data set is comprised of the first observation that exceeded the study endpoint volume and the three consecutive observations that immediately preceded the attainment of the endpoint volume. The calculated TTE is usually less than the day on which an animal is euthanized for tumor size. […] Animals classified as treatment related deaths (TR) or non-treatment-related metastatic deaths (NTRm) are assigned a TTE value equal to the day of death. Animals classified as non-treatment-related deaths (NTRu or NTRa) are excluded from TTE calculations.
Treatment efficacy was determined from tumor growth delay (TGD), which is defined as the increase in the median TTE for a treatment group compared to the control group:
expressed in days, or as a percentage of the median TTE of the control group: […]

Human U87MG Glioblastoma [2] = test: In vivo evaluation of Compound 45, alone and in combination with anti-HGF mAb HuL2G7, in human U87MG glioblastoma implanted nude mice (tumor growth delay method)
Protocol: A. In Vivo Evaluation of Compound 45, Alone and in Combination with Anti-HGF mAb HuL2G7, in Human U87MG Glioblastoma Implanted Nude Mice
as §1, with “10” for “9”, “[…])” for “Cl2)”, “Enrich-o′-Cobs™” for “Enrich-O'Cobs™”
as §2, with “glioblastoma” for “glioblastoma utilized in the present study”, “monitored twice weekly then subsequently daily” for “monitored”, “13” for “12”, “126-288” for “172-256”, “184-192” for “190-198”
as §3
Compound 45 was produced as described above. Compound 45 was then prepared for administration in 30% Captisol/25 mM citrate at pH 3.0. HuL2G7 was then provided as a 19.0 mg/ml stock solution in normal saline. The stock solution was diluted with normal saline to provide the formulation for injection.
as §4, with “Compound” for “Compounds 3 and”, “at room temperature.” for “under refrigeration.”
On Day 1, animals were pairmatched by tumor size into 16 groups of 10 mice each. Compound 45 was given p.o. at 10.8, 32.4 and 108 mg/kg qd×14. HuL2G7 was given i.v. at 1, 3 and 10 mg/kg qwk×2. Treatment with both agents either alone or in combination was initiated on Day 1. Mice treated with monotherapy received the vehicle used for the other agent. There was a vehicle control group which received the Captisol/citrate, pH 3.0 vehicle p.o. qd×14 as well as saline i.v. qwk×2. Treatment groups were compared for statistical significance to the vehicle control. Groups that received the combination were compared for statistical significance to the monotherapy groups that received the same dose of the two agents used in combination. The experiment was terminated on Day 44.
as §5
as §6, with “calculations. Treatment efficacy was determined from tumor growth delay (TGD), which is defined as the increase in the median TTE for a treatment group compared to the control group: […]” for “calculations.”

[3] = monotherapy, text summary over doses (Compound 45 daily for 14 days; HuL2G7 i.v. qwk x 2)
[4] = monotherapy: Compound 45 10.8 mg/kg p.o. qd x 14 (HuL2G7 0)
[5] = monotherapy: Compound 45 32.4 mg/kg p.o. qd x 14 (HuL2G7 0)
[6] = monotherapy: Compound 45 108 mg/kg p.o. qd x 14 (HuL2G7 0)

Compound: O=C(Nc1cn2nc(Sc3nnc4ccccn34)ccc2n1)C1CC1 [Compound 3, N-(6-([1,2,4]triazolo[4,3-a]pyridin-3-ylthio)imidazo[1,2-b]pyridazin-2-yl)cyclopropanecarboxamide]
induction of regressions (Human U87MG Glioblastoma [1]): Neither of these agents was able to induce regressions | tumor growth delays (Human U87MG Glioblastoma [1]): 3 days | tumor growth delays (% of median TTE of control) (Human U87MG Glioblastoma [1]): ca. 23%

melting point: 250.2 to 251.6 °C
Compound: Cn1cc(-c2ccc3nnn(Cc4ccc5nc(NC(=O)C6CC6)cn5n4)c3c2)cn1 [Compound 13, N-(6-((6-(1-methyl-1H-pyrazol-4-yl)-1H-benzo[d][1,2,3]triazol-1-yl)methyl)imidazo[1,2-b]pyridazin-2-yl)cyclopropanecarboxamide]

Compound: Cn1cc(-c2ccc3nnc(C(F)(F)c4ccc5nc(NC(=O)C6CC6)cn5n4)n3c2)cn1 [Compound 45, N-(6-(difluoro(6-(1-methyl-1H-pyrazol-4-yl)-[1,2,4]triazolo[4,3-a]pyridin-3-yl)methyl)imidazo[1,2-b]pyridazin-2-yl)cyclopropanecarboxamide]
induction of regressions (Human U87MG Glioblastoma [2]; monotherapy): Neither agent was able to induce regressions | tumor growth delays (Human U87MG Glioblastoma [2]; [3]): 3 to 4 days | tumor growth delays (% of median TTE of control) (Human U87MG Glioblastoma [2]; [3]): ca. 30% | Regressions (CR/PR per 10 mice) (Human U87MG Glioblastoma [2]; [4]): 0/10 | Tumor Growth Delay (TGD) (Human U87MG Glioblastoma [2]; [4]): 0 days | Regressions (CR/PR per 10 mice) (Human U87MG Glioblastoma [2]; [5]): 0/10 | Tumor Growth Delay (TGD) (Human U87MG Glioblastoma [2]; [5]): 3.9 days | Regressions (CR/PR per 10 mice) (Human U87MG Glioblastoma [2]; [6]): 0/10 | Tumor Growth Delay (TGD) (Human U87MG Glioblastoma [2]; [6]): 3.1 days | induction of regressions (Human U87MG Glioblastoma [1]): Neither of these agents was able to induce regressions | tumor growth delays (Human U87MG Glioblastoma [1]): 3 days | tumor growth delays (% of median TTE of control) (Human U87MG Glioblastoma [1]): ca. 23%
